Reference: ChEMBL document CHEMBL1909046, “DrugMatrix in vitro pharmacology data”

What was measured:
[1] = molecular target: T1, Alpha-1D adrenergic receptor (Homo sapiens, UniProt P25100); type: cell membranes, HEK293, Membrane; details: hek293; further: in other assays of this panel Not Active means under 50% inhibition at 10 µM
T1 sequence (P25100 whole entry): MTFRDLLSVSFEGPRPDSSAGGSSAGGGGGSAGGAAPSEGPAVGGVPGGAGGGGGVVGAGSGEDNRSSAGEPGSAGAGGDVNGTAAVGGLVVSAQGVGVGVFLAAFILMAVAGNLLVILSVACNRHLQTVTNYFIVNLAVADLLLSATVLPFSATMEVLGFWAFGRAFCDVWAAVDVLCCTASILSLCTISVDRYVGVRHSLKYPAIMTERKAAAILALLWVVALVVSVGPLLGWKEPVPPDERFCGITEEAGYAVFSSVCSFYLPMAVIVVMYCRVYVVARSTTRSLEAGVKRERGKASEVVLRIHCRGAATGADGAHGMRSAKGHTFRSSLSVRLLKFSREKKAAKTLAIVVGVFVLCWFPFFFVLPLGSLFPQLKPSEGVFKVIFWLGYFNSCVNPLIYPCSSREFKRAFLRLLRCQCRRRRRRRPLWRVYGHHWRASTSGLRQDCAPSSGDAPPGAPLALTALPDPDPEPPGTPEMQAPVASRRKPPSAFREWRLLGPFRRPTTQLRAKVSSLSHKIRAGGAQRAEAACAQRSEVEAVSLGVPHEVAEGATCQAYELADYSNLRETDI

[2] = molecular target: T2, Alpha-2C adrenergic receptor (Homo sapiens, UniProt P18825); assay: DRUGMATRIX: Adrenergic Alpha-2C radioligand binding (ligand: [3H] MK-912); type: cell membranes, Sf9, Membrane; details: for Ki: read-out: Ki
T2 sequence (P18825 whole entry): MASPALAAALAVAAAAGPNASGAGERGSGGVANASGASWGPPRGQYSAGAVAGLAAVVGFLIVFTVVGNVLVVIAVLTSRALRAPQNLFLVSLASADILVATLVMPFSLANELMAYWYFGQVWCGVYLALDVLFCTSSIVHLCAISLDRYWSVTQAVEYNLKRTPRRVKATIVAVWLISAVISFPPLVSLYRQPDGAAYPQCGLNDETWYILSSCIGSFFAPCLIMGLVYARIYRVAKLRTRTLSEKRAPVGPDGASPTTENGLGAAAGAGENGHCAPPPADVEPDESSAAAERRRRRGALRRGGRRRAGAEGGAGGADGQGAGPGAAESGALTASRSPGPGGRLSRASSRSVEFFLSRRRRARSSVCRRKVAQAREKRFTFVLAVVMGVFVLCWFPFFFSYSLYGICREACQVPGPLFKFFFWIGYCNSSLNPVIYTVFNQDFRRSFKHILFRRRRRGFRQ

[3] = molecular target: T3, 5-hydroxytryptamine receptor 2C (Homo sapiens, UniProt P28335); assay: DRUGMATRIX: Serotonin (5-Hydroxytryptamine) 5-HT2C radioligand binding (ligand: [3H] Mesulergine); type: cell membranes, CHO-K1, Membrane; details: cho-k1; Not Active = under 50% inhibition at 10 µM
T3 sequence (P28335 whole entry): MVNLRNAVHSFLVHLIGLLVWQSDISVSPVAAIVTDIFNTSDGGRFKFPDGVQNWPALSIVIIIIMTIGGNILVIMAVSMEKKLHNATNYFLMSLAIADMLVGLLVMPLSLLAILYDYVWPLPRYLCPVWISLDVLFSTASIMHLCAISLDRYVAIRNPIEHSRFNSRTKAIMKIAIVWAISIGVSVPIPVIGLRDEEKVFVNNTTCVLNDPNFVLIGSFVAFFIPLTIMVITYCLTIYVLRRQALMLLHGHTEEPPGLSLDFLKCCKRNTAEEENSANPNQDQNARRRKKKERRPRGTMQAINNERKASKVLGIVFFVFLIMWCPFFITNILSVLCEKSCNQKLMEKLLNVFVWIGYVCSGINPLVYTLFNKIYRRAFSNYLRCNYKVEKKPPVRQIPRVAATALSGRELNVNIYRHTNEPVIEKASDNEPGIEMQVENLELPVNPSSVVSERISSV

[4] = molecular target: T4, Muscarinic acetylcholine receptor M5 (Homo sapiens, UniProt P08912); type: cell membranes, CHO-K1, Membrane; details: cho-k1; further: in other assays of this panel Not Active means under 50% inhibition at 10 µM
T4 sequence (P08912 whole entry): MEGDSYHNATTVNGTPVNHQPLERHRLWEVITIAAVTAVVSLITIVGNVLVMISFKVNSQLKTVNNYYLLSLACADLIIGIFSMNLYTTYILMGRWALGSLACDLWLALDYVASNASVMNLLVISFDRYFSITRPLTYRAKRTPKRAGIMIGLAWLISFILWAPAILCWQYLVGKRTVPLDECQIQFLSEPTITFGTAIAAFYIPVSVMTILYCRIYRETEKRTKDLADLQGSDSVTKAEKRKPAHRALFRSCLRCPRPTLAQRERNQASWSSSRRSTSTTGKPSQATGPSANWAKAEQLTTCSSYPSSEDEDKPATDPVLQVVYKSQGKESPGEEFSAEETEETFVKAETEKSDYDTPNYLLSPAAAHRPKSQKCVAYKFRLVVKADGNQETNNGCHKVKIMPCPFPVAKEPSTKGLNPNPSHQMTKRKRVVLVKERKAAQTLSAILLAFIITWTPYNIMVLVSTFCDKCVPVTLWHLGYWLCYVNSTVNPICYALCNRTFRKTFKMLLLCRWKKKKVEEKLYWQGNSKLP

Cytochrome P450 3A4 = Cytochrome P450 3A4 (Homo sapiens, UniProt P08684); details: bti-tn-5b1-4; further: in other assays of this panel Not Active means under 50% inhibition at 10 µM
Estrogen receptor beta = Estrogen receptor beta (Homo sapiens, UniProt Q92731); details: sf9; further: in other assays of this panel Not Active means under 50% inhibition at 10 µM
Estrogen receptor beta, sequence (Q92731 whole entry): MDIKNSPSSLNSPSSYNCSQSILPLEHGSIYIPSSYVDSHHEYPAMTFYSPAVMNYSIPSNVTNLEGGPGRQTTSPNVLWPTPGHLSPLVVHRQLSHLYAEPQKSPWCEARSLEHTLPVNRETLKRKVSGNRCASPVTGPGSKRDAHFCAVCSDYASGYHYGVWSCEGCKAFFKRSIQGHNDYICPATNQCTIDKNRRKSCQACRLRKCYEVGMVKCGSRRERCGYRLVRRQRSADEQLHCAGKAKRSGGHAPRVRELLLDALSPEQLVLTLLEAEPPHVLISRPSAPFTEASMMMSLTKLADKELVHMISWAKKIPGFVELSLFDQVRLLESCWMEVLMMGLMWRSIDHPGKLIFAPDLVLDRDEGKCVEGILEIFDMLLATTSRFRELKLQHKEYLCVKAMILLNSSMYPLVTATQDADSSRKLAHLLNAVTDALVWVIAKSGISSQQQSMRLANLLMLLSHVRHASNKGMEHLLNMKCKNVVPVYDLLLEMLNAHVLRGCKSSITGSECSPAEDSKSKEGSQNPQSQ

Cytochrome P450 3A4, sequence (P08684 whole entry): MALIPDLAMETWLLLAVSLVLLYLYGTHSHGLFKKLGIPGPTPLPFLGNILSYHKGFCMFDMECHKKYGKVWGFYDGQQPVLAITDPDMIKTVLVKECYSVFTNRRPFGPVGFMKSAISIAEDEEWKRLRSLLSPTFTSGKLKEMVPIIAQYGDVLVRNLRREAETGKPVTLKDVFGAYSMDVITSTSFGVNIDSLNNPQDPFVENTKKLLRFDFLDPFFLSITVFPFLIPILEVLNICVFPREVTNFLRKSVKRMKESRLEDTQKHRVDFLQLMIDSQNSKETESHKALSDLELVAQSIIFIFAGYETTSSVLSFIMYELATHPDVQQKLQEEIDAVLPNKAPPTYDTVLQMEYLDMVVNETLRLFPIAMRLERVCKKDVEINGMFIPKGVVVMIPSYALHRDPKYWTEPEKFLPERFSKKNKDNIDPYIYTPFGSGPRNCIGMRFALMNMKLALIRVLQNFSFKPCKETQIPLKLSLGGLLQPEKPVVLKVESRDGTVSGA

| Structure (SMILES) | IC50 [1] | IC50 ([2]; sf9) | IC50 [3] | IC50 [4] | IC50 (Cytochrome P450 3A4) | Ki (Cytochrome P450 3A4) | IC50 (Estrogen receptor beta) | IC50 ([2]; read-out: IC50) [µM] | Ki [2] [µM] |
| --- | --- | --- | --- | --- | --- | --- | --- | --- | --- |
| Oc1ccc(OCc2ccccc2)cc1 [MONOBENZONE] | Not Active | Not Active | Not Active | Not Active | Not Active | Not Active | Not Active |  |  |
| Nc1ccn([C@@H]2CS[C@H](CO)O2)c(=O)n1 [LAMIVUDINE] | Not Active | Not Active | Not Active | Not Active | Not Active | Not Active | Not Active |  |  |
| CC(C)[C@H]1CC[C@H](C(=O)N[C@H](Cc2ccccc2)C(=O)O)CC1 [NATEGLINIDE] | Not Active | Not Active | Not Active | Not Active | Not Active | Not Active | Not Active |  |  |
| CCCC(=O)Nc1ccc(OCC(O)CNC(C)C)c(C(C)=O)c1 (stereo not given) [ACEBUTOLOL] | Not Active | Not Active | Not Active | Not Active | Not Active | Not Active | Not Active |  |  |
| C[C@]12CC[C@@H]3c4ccc(OC(=O)c5ccccc5)cc4CC[C@H]3[C@@H]1CC[C@@H]2O [ESTRADIOL BENZOATE] | Not Active |  | Not Active | Not Active | Not Active | Not Active | Not Active | 24.6 | 3.58 |
| CC1(C)O[C@@H]2C[C@H]3[C@@H]4C[C@H](F)C5=CC(=O)C=C[C@]5(C)[C@H]4[C@@H](O)C[C@]3(C)[C@]2(C(=O)CO)O1 [FLUNISOLIDE] | Not Active | Not Active | Not Active | Not Active | Not Active | Not Active | Not Active |  |  |
| CC(=O)Nc1ccc(O)cc1 [ACETAMINOPHEN] | Not Active | Not Active | Not Active | Not Active | Not Active | Not Active | Not Active |  |  |
| CCc1c2c(nc3ccc(OC(=O)N4CCC(N5CCCCC5)CC4)cc13)-c1cc3c(c(=O)n1C2)COC(=O)[C@]3(O)CC [IRINOTECAN] | Not Active |  | Not Active | Not Active | Not Active | Not Active | Not Active | 3.17 | 0.461 |
| C#C[C@]1(OC(C)=O)CC[C@H]2[C@@H]3CCC4=CC(=O)CC[C@@H]4[C@H]3CC[C@@]21C [NORETHINDRONE ACETATE] | Not Active | Not Active | Not Active | Not Active | Not Active | Not Active | Not Active |  |  |
| N=C(Nc1ccccc1)Nc1ccccc1 | Not Active | Not Active | Not Active | Not Active | Not Active | Not Active | Not Active |  |  |
| ClC(Cl)Cl [CHLOROFORM] | Not Active | Not Active | Not Active | Not Active | Not Active | Not Active | Not Active |  |  |
| N=C(N)NC(=O)c1nc(Cl)c(N)nc1N [AMILORIDE] | Not Active | Not Active | Not Active | Not Active | Not Active | Not Active | Not Active |  |  |
| CCN1CC(CCN2CCOCC2)C(c2ccccc2)(c2ccccc2)C1=O (stereo not given) [DOXAPRAM] | Not Active | Not Active | Not Active | Not Active | Not Active | Not Active | Not Active |  |  |
| COc1cccc2c1C(=O)c1c(O)c3c(c(O)c1C2=O)C[C@@](O)(C(=O)CO)C[C@@H]3O[C@H]1C[C@H](N)[C@H](O)[C@H](C)O1 [DOXORUBICIN] | Not Active | Not Active | Not Active | Not Active | Not Active | Not Active | Not Active |  |  |
| Cn1c(=O)c2c(ncn2CC2OCCO2)n(C)c1=O [DOXOFYLLINE] | Not Active | Not Active | Not Active | Not Active | Not Active | Not Active | Not Active |  |  |
| C=C1CC[C@H](O)C/C1=C/C=C1\CCC[C@]2(C)[C@@H]([C@H](C)CCCC(C)C)CC[C@@H]12 [CHOLECALCIFEROL] | Not Active | Not Active | Not Active | Not Active | Not Active | Not Active | Not Active |  |  |
| CC(=O)OCC(=O)[C@@]1(O)CC[C@H]2[C@@H]3CCC4=CC(=O)CC[C@]4(C)[C@H]3C(=O)C[C@@]21C [CORTISONE ACETATE] | Not Active | Not Active | Not Active | Not Active | Not Active | Not Active | Not Active |  |  |
| COc1ccc2[nH]c([S+]([O-])Cc3ncc(C)c(OC)c3C)nc2c1 (stereo not given) [OMEPRAZOLE] | Not Active | Not Active | Not Active | Not Active | Not Active | Not Active | Not Active |  |  |
| Nc1c(CC(=O)O)cccc1C(=O)c1ccc(Br)cc1 [BROMFENAC] | Not Active | Not Active | Not Active | Not Active | Not Active | Not Active | Not Active |  |  |
| C[C@H]1O[C@@H](O[C@H]2[C@@H](O)C[C@H](O[C@H]3[C@@H](O)C[C@H](O[C@H]4CC[C@@]5(C)[C@H](CC[C@@H]6[C@@H]5CC[C@]5(C)[C@@H](C7=CC(=O)OC7)CC[C@]65O)C4)O[C@@H]3C)O[C@@H]2C)C[C@H](O)[C@@H]1O [DIGITOXIN] | Not Active | Not Active | Not Active | Not Active | Not Active | Not Active | Not Active |  |  |
| O=S(=O)([O-])CCS.[Na+] [MESNA] | Not Active | Not Active | Not Active | Not Active | Not Active | Not Active | Not Active |  |  |
| O=C(O)Cc1ccccc1Nc1c(Cl)cccc1Cl [DICLOFENAC] | Not Active | Not Active | Not Active | Not Active | Not Active | Not Active | Not Active |  |  |
| COc1ccccc1C(=O)N1CCC(Cc2ccccc2)CC1 | Not Active | Not Active | Not Active | Not Active | Not Active | Not Active | Not Active |  |  |
| CCOC(=O)[C@H](CCc1ccccc1)N[C@H]1CCc2ccccc2N(CC(=O)O)C1=O [BENAZEPRIL] | Not Active | Not Active | Not Active | Not Active | Not Active | Not Active | Not Active |  |  |
